The source of these data is ChEMBL document CHEMBL1128541 (J Med Chem, 1995).

For assay [1], the target named is cGMP-specific 3',5'-cyclic phosphodiesterase (Homo sapiens, UniProt O76074). Briefly: Inhibitory activity against phosphodiesterase 5 from human platelets.
In a further assay the target is Phosphodiesterase 3 (Homo sapiens, UniProt Q14432+Q13370). Kind of assay: Inhibition of human platelet Phosphodiesterase 3.
Assay [2] concerns the target T1, cGMP-dependent 3',5'-cyclic phosphodiesterase (Rattus norvegicus, UniProt Q01062).
T1 sequence (Q01062 whole entry): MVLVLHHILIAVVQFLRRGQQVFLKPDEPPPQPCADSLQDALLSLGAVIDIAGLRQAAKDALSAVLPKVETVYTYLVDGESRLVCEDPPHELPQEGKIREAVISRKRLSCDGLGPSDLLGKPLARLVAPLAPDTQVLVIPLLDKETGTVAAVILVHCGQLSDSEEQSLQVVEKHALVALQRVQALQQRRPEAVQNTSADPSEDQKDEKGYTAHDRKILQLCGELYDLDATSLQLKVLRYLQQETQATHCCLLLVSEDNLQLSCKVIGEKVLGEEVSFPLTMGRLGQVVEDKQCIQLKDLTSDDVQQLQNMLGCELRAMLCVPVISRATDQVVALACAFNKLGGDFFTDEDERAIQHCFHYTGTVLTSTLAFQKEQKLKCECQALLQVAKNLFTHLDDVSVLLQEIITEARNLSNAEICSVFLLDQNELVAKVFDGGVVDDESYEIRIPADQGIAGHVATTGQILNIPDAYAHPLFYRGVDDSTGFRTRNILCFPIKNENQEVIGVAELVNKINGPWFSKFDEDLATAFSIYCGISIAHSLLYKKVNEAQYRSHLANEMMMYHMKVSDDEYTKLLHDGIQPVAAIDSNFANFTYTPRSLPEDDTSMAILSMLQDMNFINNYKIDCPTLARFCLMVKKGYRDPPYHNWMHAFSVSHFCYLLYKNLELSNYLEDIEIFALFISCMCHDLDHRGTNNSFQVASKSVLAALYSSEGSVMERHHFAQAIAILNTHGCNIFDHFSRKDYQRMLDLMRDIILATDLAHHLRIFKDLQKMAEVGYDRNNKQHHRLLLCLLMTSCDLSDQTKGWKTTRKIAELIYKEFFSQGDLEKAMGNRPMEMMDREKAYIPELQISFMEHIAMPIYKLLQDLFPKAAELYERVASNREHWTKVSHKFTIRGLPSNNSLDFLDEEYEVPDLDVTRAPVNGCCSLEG
Briefly: Inhibition of rat brain Phosphodiesterase 2.

The target in a further assay is Phosphodiesterase 4 (Rattus norvegicus, UniProt P14270+P14646+P14644+P54748). Briefly: Inhibition of rat kidney Phosphodiesterase 4. It is filed as protein assay.
The target of another assay is Phosphodiesterase 1 (Bos taurus, UniProt Q01061+P14100). Kind of assay: Inhibition of bovine aorta Phosphodiesterase 1. It counts as protein assay.
The target in the next assay is T2, Thromboxane-A synthase (Homo sapiens, UniProt P24557).
T2 sequence (P24557 whole entry): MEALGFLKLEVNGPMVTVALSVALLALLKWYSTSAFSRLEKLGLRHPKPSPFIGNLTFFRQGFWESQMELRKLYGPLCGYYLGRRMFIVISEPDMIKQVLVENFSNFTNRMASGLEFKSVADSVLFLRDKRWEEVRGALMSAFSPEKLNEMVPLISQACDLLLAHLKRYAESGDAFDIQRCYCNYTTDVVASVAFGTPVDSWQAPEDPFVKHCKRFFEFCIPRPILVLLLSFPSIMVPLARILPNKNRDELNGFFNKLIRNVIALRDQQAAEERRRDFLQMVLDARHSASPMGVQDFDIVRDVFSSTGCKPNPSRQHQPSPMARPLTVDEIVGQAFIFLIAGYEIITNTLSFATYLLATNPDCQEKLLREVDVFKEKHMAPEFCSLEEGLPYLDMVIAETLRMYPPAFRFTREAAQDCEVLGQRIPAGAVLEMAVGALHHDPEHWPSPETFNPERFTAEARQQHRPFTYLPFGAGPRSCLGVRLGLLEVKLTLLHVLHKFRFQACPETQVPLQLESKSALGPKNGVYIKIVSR
Briefly: In vitro inhibition of Thromboxane A2 synthase in human platelet.

Assay [3] is filed under the species Rattus norvegicus. Briefly: In vitro inhibition of Thromboxane B2 production in A-23,187-Induced Rat Whole Blood. It counts as functional.
Assay [4] is filed under the species Rattus norvegicus. Briefly: Ex vivo inhibition of Thromboxane B2 production in A-23,187-Induced Rat Whole Blood. It is filed as functional.
A further assay addresses Cyclooxygenase (Homo sapiens, UniProt P35354+P23219). Kind of assay: Inhibitory activity against Prostaglandin G/H synthase. It counts as protein assay.

In assay [1], `COc1ccc2nc(-n3ccnc3)nc(NCc3ccco3)c2c1` displayed an IC50 of 72 nM.
Compound `c1ccc(CNc2nc(C3CCCCC3)nc3ccccc23)cc1` gave an IC50 in assay [1] of 11000 nM.
With `c1ccc(-c2nc(NCC3CCCO3)c3ccccc3n2)cc1` (stereo not given), half-maximal inhibition in assay [1] (IC50) required 8800 nM.
The same measure, in the same setting: the figure for `c1ccc(Nc2nc(-c3cccs3)nc3ccccc23)cc1` is 2400 nM.
Turning to `Cl.Cl.Clc1ccc2nc(-n3ccnc3)nc(NCc3ccccc3)c2c1`, the IC50 (against Phosphodiesterase 3; in [2]; at Phosphodiesterase 4; against Phosphodiesterase 1) was more than 3000 nM throughout.
With `CN(Cc1ccccc1)c1nc(-c2ccccc2)nc2ccccc12`, in assay [1], the half-inhibitory concentration (IC50) was found to be 14000 nM. This lies in the double-digit micromolar range.
In assay [1], `C(=C\c1nc(NCc2ccccc2)c2ccccc2n1)/c1ccccc1` displayed a 50% inhibitory concentration (IC50) of 1300 nM.
Still for that read-out and setting: the result for `Fc1ccc2c(NCc3ccccc3)nc(-c3cccnc3)nc2c1` reads 480 nM; that for `c1ccc(-c2nc(NC3CCCC3)c3ccccc3n2)cc1`, 2400 nM.
In [1], `c1ccc(CNc2nc(-c3ccco3)nc3ccccc23)cc1` had an IC50 of 2500 nM.
In [1], `c1ccc(-c2nc(NCc3ccco3)c3ccccc3n2)cc1` displayed a 50% inhibitory concentration (IC50) of 4700 nM.
Still for that read-out and setting: the result for `CS(=O)(=O)c1ccc2nc(-n3ccnc3)nc(NCc3ccccc3)c2c1` reads 110 nM; that for `Clc1ccccc1Nc1nc(-c2ccccc2)nc2ccccc12`, 5500 nM.
`OCCCCCNc1nc(-c2ccccc2)nc2ccccc12` gave an IC50 in [1] of 15000 nM.
`c1ccc(Nc2nc(-c3ccco3)nc3ccccc23)cc1` had an IC50 in [1] of 2300 nM.
On the same count and under the same terms, the figure for `c1cncc(-c2nc(NCC3CCCO3)c3ccccc3n2)c1` (stereo not given) is 5000 nM.
For the compound `c1ccc(CNc2nc(-c3cccnc3)nc3ccccc23)cc1`, the IC50 against Thromboxane-A synthase is 5800 nM; in [1], 450 nM; on Phosphodiesterase 3, more than 100000 nM; in the assay filed under Rattus norvegicus [3], more than 10000 nM; in assay [2], 19000 nM; against Cyclooxygenase it was 50000 nM. The IC50 against Phosphodiesterase 4 was found to be 9000 nM; on Phosphodiesterase 1, 21000 nM. In addition, the median effective dose (ED50) in the assay listed under Rattus norvegicus [4] was more than 30 mg/kg.
`c1ccc(CNc2nc(-c3ccncc3)nc3ccccc23)cc1`: the IC50 at Thromboxane-A synthase is 830 nM; in assay [1], 310 nM; on Phosphodiesterase 3, more than 100000 nM; in the assay filed under Rattus norvegicus [3] it was 1800 nM; in assay [2] it was 17000 nM; against Cyclooxygenase, 14000 nM. Besides, the IC50 at Phosphodiesterase 4 was determined as 7500 nM; on Phosphodiesterase 1 it was 7000 nM. The compound further came in with an ED50 in the assay listed under Rattus norvegicus [4] of 11 mg/kg.
With `Clc1ccc2nc(-c3cccnc3)nc(NCc3ccco3)c2c1`, in [1], inhibition was half-maximal at 120 nM (IC50).
Take `Cl.Cl.O=[N+]([O-])c1ccc2nc(-c3cccnc3)nc(NCc3ccccc3)c2c1`: the IC50 in [1] was 10 nM; at Phosphodiesterase 3 it was more than 3000 nM; in [2], more than 3000 nM; against Phosphodiesterase 4, more than 3000 nM; against Phosphodiesterase 1 it was more than 3000 nM.
In assay [1], `c1ccc(CCNc2nc(-n3ccnc3)nc3ccccc23)cc1` came in with an IC50 of 860 nM.
As to `c1cncc(-c2nc(NCc3cccs3)c3ccccc3n2)c1`, in assay [1], the IC50 was 360 nM.
For `Clc1nc(NCc2ccccc2)c2ccccc2n1`, in assay [1], the IC50 worked out at 4600 nM.
Take `O=[N+]([O-])c1cccc(Nc2nc(-c3ccccc3)nc3ccccc23)c1`: the IC50 in assay [1] worked out at 420 nM. Against the preceding compound, the IC50 is about 11-fold lower.
As for `c1ccc(CNc2nc(-c3ccccc3)nc3ccccc23)cc1`, the 50% inhibitory concentration (IC50) in [1] is 320 nM; on Phosphodiesterase 3 it was more than 100000 nM; in assay [2] it was 24000 nM; against Phosphodiesterase 4 it was 8200 nM; at Phosphodiesterase 1 it was 22500 nM.
Take `Clc1ccccc1CNc1nc(-c2ccccc2)nc2ccccc12`: the IC50 in [1] amounted to 800 nM.
Still for that read-out and setting: the figure for `Clc1cccc(CNc2nc(-c3ccccc3)nc3ccccc23)c1` is 800 nM; for `c1csc(CNc2nc(-n3ccnc3)nc3ccccc23)c1` it is 210 nM.
Take `COc1ccc2nc(-n3ccnc3)nc(NCc3ccccc3)c2c1.Cl.Cl`: the IC50 against Thromboxane-A synthase is 2500 nM; in assay [1], 16 nM; on Phosphodiesterase 3, 2000 nM; in the assay filed under Rattus norvegicus [3] it was 830 nM; in assay [2], more than 3000 nM; against Phosphodiesterase 4, 3300 nM. At Phosphodiesterase 1, this compound yielded an IC50 of 2800 nM. The compound also came in with an ED50 in the assay filed under Rattus norvegicus [4] of 2.6 mg/kg.
In assay [1], `COC(=O)c1cccc(Nc2nc(-c3ccccc3)nc3ccccc23)c1` returned an IC50 of 190 nM.
Turning to `Clc1cccc(Nc2nc(-c3ccccc3)nc3ccccc23)c1`, in assay [1], inhibition was half-maximal at 1000 nM (IC50).
In assay [1], `CCOC(=O)CCCNc1nc(-c2ccccc2)nc2ccccc12` registered an IC50 of 4300 nM.
Still for that read-out and setting: the figure for `Cc1ccc2nc(-c3cccnc3)nc(NCc3ccccc3)c2c1` is 105 nM; for `O=[N+]([O-])c1ccc2nc(-n3ccnc3)nc(NCc3ccccc3)c2c1` it is 2.6 nM.
The same measure, in the same setting: the figure for `COC(=O)c1ccc(Nc2nc(-c3ccccc3)nc3ccccc23)cc1` is 860 nM; for `c1ccc(CCNc2nc(-c3cccnc3)nc3ccccc23)cc1` it is 540 nM.
For the compound `c1ccc(COc2nc(-c3ccccc3)nc3ccccc23)cc1`, the IC50 in assay [1] was determined as 18500 nM.
In assay [1], `Brc1ccc2nc(-n3ccnc3)nc(NCc3ccccc3)c2c1` registered an IC50 of 2.3 nM.
On to `CSc1ccc2nc(-n3ccnc3)nc(NCc3ccccc3)c2c1`, for which, in assay [1], inhibition was half-maximal at 14 nM (IC50). Compared with the last compound, the IC50 is about 6.1-fold higher.
On to `c1ccc(CNc2nc(-c3cccs3)nc3ccccc23)cc1`, for which the IC50 was 720 nM in assay [1]; more than 100000 nM at Phosphodiesterase 3; 21000 nM in [2]; 7600 nM against Phosphodiesterase 4; 13000 nM on Phosphodiesterase 1.
Regarding `c1ccc(-c2nc(NCc3cccnc3)c3ccccc3n2)cc1`, the concentration for half-maximal inhibition (IC50) in assay [1] amounted to 8600 nM.
On the same count and under the same terms, the figure for `CN1CCN(c2nc(NCc3ccccc3)c3ccccc3n2)CC1` is 22000 nM; for `c1cncc(CNc2nc(-c3cccnc3)nc3ccccc23)c1` it is 2800 nM; for `c1ccc(-c2nc(Nc3cccnc3)c3ccccc3n2)cc1` it is 13000 nM.
Consider `CCCOc1ccccc1-c1nc2[nH]nnc2c(=O)[nH]1` [ZAPRINAST], for which the values for the IC50 (against Phosphodiesterase 3; in assay [2]; at Phosphodiesterase 1) were 660000 nM, 100000 nM and 68000 nM, respectively.
`Clc1ccc(CNc2nc(-c3ccccc3)nc3ccccc23)cc1` registered an IC50 in [1] of 740 nM.
On the same count and under the same terms, the result for `c1ccc2c(NCC3CCCCC3)nc(-n3ccnc3)nc2c1` reads 230 nM.
Take `Cl.Cl.Clc1ccc2nc(-c3cccnc3)nc(NCc3ccccc3)c2c1`: the IC50 in assay [1] was 26 nM; at Phosphodiesterase 3, more than 50000 nM; in assay [2] it was more than 50000 nM; on Phosphodiesterase 4, more than 50000 nM; at Phosphodiesterase 1, more than 50000 nM.
`c1ccc(CCNc2nc(-c3ccccc3)nc3ccccc23)cc1` showed an IC50 in [1] of 1900 nM.
Still for that read-out and setting: the result for `c1cncc(-c2nc(NCC3CC3)c3ccccc3n2)c1` reads 4400 nM; that for `CN(c1ccccc1)c1nc(-c2ccccc2)nc2ccccc12`, 20000 nM; that for `Fc1ccc2nc(-c3cccnc3)nc(NCc3ccccc3)c2c1`, 165 nM.
In turn, `COc1cccc(Nc2nc(-c3ccccc3)nc3ccccc23)c1` gave an IC50 in [1] of 760 nM. This IC50 is about 4.6-fold higher than that of the compound before.
On the same count and under the same terms, the figure for `Clc1ccc(Nc2nc(-c3ccccc3)nc3ccccc23)cc1` is 2150 nM; for `c1coc(CNc2nc(-n3ccnc3)nc3ccccc23)c1` it is 630 nM.
Same read-out and setting: the figure for `c1ccc(-c2nc(NCc3ccccn3)c3ccccc3n2)cc1` is 11000 nM.

As a reminder, the IC50 is the concentration that inhibits the measured activity by half. Read a high IC50 as weaker potency in that assay. The ED50 is the midpoint of the dose-response relation.
